From ChEMBL document CHEMBL1201862, “PubChem BioAssay data set” (2004)
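Method: 48-hour compound exposure of cells in 96-well plates, five concentrations, linear interpolation of endpoints. The concentration for 50% growth inhibition is given as GI50.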 Activity calls are given as the source filed them. Cut-off read from the data, not from the text of the source: active = GI50 up to about 1.1 µM and inactive = higher.

What was measured:
Assay in all cases: NCI tumour cell line growth inhibition, 48 h
[1] = test system: A549
[2] = test system: U-251
[3] = test system: UACC-257
[4] = test system: MDA-MB-231
[5] = test system: SNB-75
[6] = test system: A498
[7] = test system: CCRF-CEM
[8] = test system: NCI-H460
[9] = test system: MOLT-4
[10] = test system: KM12
[11] = test system: 786-0
[12] = test system: SK-MEL-2
[13] = test system: NCI-H23
[14] = test system: COLO 205
[15] = test system: OVCAR-4
[16] = test system: CAKI-1
[17] = test system: SW-620
[18] = test system: ACHN
[19] = test system: EKVX

Structure (SMILES) | GI50 [1] | GI50 [2] | GI50 [3] | GI50 [4] | GI50 [5] | GI50 [6] | GI50 [7] | GI50 [8] | GI50 [9] | GI50 [10] | GI50 [11] | GI50 [12] | GI50 [13] | GI50 [14] | GI50 [15] | GI50 [16] | GI50 [17] | GI50 [18] | GI50 [19]
CCOC1OC(=O)c2cc3ccc4c(c3c(-c3ccc5c(c3)OCO5)c21)OCO4 (configuration not stated) | 3.08 µM (inactive) | 5.68 µM (inactive) | 9.79 µM (inactive) | 17.4 µM (inactive) | 1.08 µM (active) | 9.4 µM (inactive) | 9.33 µM (inactive) | 3.56 µM (inactive) | 6.05 µM (inactive) | 4.58 µM (inactive) | 9.06 µM (inactive) | 12.8 µM (inactive) | 3.72 µM (inactive) | 1.55 µM (inactive) | 16.7 µM (inactive) | 4.48 µM (inactive) | 6.04 µM (inactive) | 10.4 µM (inactive) | 3.54 µM (inactive)
N#Cc1ccccc1OCCOc1ccccc1C#N | > 100 µM (inactive) | 61 µM (inactive) | > 100 µM (inactive) | > 100 µM (inactive) | 61.9 µM (inactive) | > 100 µM (inactive) | > 100 µM (inactive) | > 100 µM (inactive) | > 100 µM (inactive) | > 100 µM (inactive) | > 100 µM (inactive) | > 100 µM (inactive) | > 100 µM (inactive) | > 100 µM (inactive) | > 100 µM (inactive) | > 100 µM (inactive) | > 100 µM (inactive) | > 100 µM (inactive) | > 100 µM (inactive)
CC1=CC2C(O1)C1C(=O)C=CC(=O)C1=CC2[N+](=O)[O-] (configuration not stated) | 19.4 µM (inactive) | 18.5 µM (inactive) | 16.9 µM (inactive) | 19.8 µM (inactive) | 26.7 µM (inactive) | 22.9 µM (inactive) | 3.85 µM (inactive) | 18.6 µM (inactive) | 3.48 µM (inactive) | 24.3 µM (inactive) | 12.3 µM (inactive) | 23.3 µM (inactive) | 19.9 µM (inactive) | 5.73 µM (inactive) | 17.3 µM (inactive) | 5.01 µM (inactive) | 3.61 µM (inactive) | 5.3 µM (inactive) | 14.6 µM (inactive)
CSC(=O)/C=C1\SS/C(=C\C(=O)SC)S1 | 6.24 µM (inactive) | 2.14 µM (inactive) | 3.06 µM (inactive) | 2.07 µM (inactive) | 2.58 µM (inactive) | 7.89 µM (inactive) | 1.88 µM (inactive) | 2.26 µM (inactive) | 1.77 µM (inactive) | 5.05 µM (inactive) | 1.85 µM (inactive) | 2.15 µM (inactive) | 3.08 µM (inactive) | 6.31 µM (inactive) | 3.75 µM (inactive) | 1.39 µM (inactive) | 1.81 µM (inactive) | 2.99 µM (inactive) | 2.4 µM (inactive)
CN1CCN(CC(=O)N2CCCn3c2nc2ccccc2c3=O)CC1 | > 100 µM (inactive) | > 100 µM (inactive) | > 100 µM (inactive) | > 100 µM (inactive) | > 100 µM (inactive) | > 100 µM (inactive) | > 100 µM (inactive) | > 100 µM (inactive) | > 100 µM (inactive) | > 100 µM (inactive) | > 100 µM (inactive) | > 100 µM (inactive) | > 100 µM (inactive) | > 100 µM (inactive) | > 100 µM (inactive) | > 100 µM (inactive) | > 100 µM (inactive) | > 100 µM (inactive) | > 100 µM (inactive)
CCOP(=O)(OCC)/C(C#N)=C/c1[nH]cnc1C | > 100 µM (inactive) | > 100 µM (inactive) | > 100 µM (inactive) | > 100 µM (inactive) | > 100 µM (inactive) | > 100 µM (inactive) | > 100 µM (inactive) | > 100 µM (inactive) | > 100 µM (inactive) | > 100 µM (inactive) | > 100 µM (inactive) | > 100 µM (inactive) | > 100 µM (inactive) | > 100 µM (inactive) | > 100 µM (inactive) | > 100 µM (inactive) | > 100 µM (inactive) | > 100 µM (inactive) | > 100 µM (inactive)
CN(C)CCNc1nc2ccccc2c2c1C(=O)c1ccccc1-2 | 0.0581 µM (active) | 0.219 µM (active) | 0.538 µM (active) | 0.542 µM (active) | 0.564 µM (active) | 0.163 µM (active) | 0.0923 µM (active) | < 0.0194 µM (active) | 0.01 µM (active) | 0.326 µM (active) | 0.132 µM (active) | 0.368 µM (active) | 0.316 µM (active) | 0.303 µM (active) | 0.338 µM (active) | 0.124 µM (active) | 0.137 µM (active) | 0.0834 µM (active) | 0.361 µM (active)
C/C=C\C(CC(=O)NCC(=O)c1c[nH]c2ccccc12)CC(=O)OC (configuration not stated) | > 100 µM (inactive) | > 100 µM (inactive) | > 100 µM (inactive) | > 100 µM (inactive) | > 100 µM (inactive) | > 100 µM (inactive) | 75.2 µM (inactive) | > 100 µM (inactive) | > 100 µM (inactive) | > 100 µM (inactive) | > 100 µM (inactive) | > 100 µM (inactive) | > 100 µM (inactive) | > 100 µM (inactive) | > 100 µM (inactive) | > 100 µM (inactive) | > 100 µM (inactive) | > 100 µM (inactive) | > 100 µM (inactive)
